Measurements published in US20090099253A1, “Internally Masked Neopentyl Sulfonyl Ester Cyclization Release Prodrugs of Acamprosate, Compositions Thereof, and Methods of Use” (XenoPort, Inc., priority 2007, published 2009).
Blank lines part the entries; values can stand above or below the molecule they belong to.

Assays:
[1] = test system: cocaine conditioned mice; conditions: 100 mg/kg for 3 days; cited from earlier work
[2] = test system: patients with alcohol dependence; conditions: patients with alcohol dependence abstinent at initiation of treatment; cited from earlier work
[3] = test system: individual patients; conditions: doses from about 1,000 mg/day to about 2,000 mg/day; cited from earlier work
[4] = cited from earlier work
[5] = test system: patients being treated for alcohol withdrawal; conditions: cited from earlier work
[6] = rat, in vivo
Procedure: Acamprosate or acamprosate prodrug was administered by oral gavage to groups of four to six adult male Sprague-Dawley rats (about 250 g). Animals were conscious at the time of the experiment. Acamprosate or acamprosate prodrug was orally (po) or colonically (ic) administered in 3.4% Phosal or 5% Phosal (53 MCT in 7.5% Tween 80 in 50 mM sodium phosphate buffer, pH 6.8) at a dose of 70 mg-equivalents acamprosate per kg body weight.
The percent relative bioavailability (F %) of acamprosate was determined by comparing the area under the acamprosate concentration vs time curve (AUC) following oral or colonic administration of an acamprosate prodrug or acamprosate with the AUC of the acamprosate concentration vs time curve following intravenous administration of acamprosate on a dose normalized basis.

- melting point: 63.1 to 64.8 °C
SMILES: CC(=O)NCCCS(=O)(=O)OCC1(C)CCC(=O)O1 (racemic) [Compound 6, rac-(2-Methyl-5-oxo-2-2,3,4-trihydrofuryl)methyl [3-(acetylamino)propyl]sulfonate]

SMILES: CC(=O)NCCCS(=O)(=O)O [acamprosate, 3-(Acetylamino)propylsulfonic acid]
- effect on relapse-like behavior [1]: attenuated relapse-like behavior
- maintaining abstinence from alcohol [2]: effective for maintaining abstinence from alcohol
- treatment of tardive dyskinesia, dystonia, and tic [3]: effective in treating tardive dyskinesia, dystonia, and tic
- steady-state plasma concentration ([4]; doses of about 1-2 gm per day): 370 to 640 ng/mL
- time post-dose at which steady-state plasma concentration occurs ([4]; doses of about 1-2 gm per day): 3 to 8 h
- oral bioavailability ([4]; humans, oral): about 11%
- effect on sleep [5]: improve sleep

- acamprosate colonic bioavailability relative to the acamprosate colonic bioavailability of an equivalent dose of acamprosate itself [6]: at least 5 times
SMILES: CC(=O)NCCCS(=O)(=O)OCC(C)(C)[C@@H]1COC(=O)O1 [Compound 12, 2-((4R)-2-Oxo(1,3-dioxolan-4-yl))-2-methylpropyl[3-(acetylamino)propyl]sulfonate]
